“Also recorded” adds a separate entry of the source.
What was measured:
Format in all cases: cell-based, human
T47D cells = assay: Drug library screen (Selleck anti-cancer, NPC, NIH bioactive), PSMD2 KD vs control T47D cells; settings: for growth inhibition of T47D cells with reduced level of PSMD2 vs control T47D cells: Selleck anti-cancer compound library screen
Method: Schematic representation of the drug screen setup. (FIG. 37A) 147D cells harboring a doxycycline-inducible PSMD2 shRNA were grown in the presence or absence of doxycycline for 48 hr. Cells were then collected, washed, and plated in the absence of doxycycline for 24 hr prior to exposure different compounds. Relative cell numbers were measured 3 days later.
The relative viability of the Lo19S versus control cells was calculated for replica experiments and the log2 of the ratio is plotted. […] The relative viability of the respiring cells (Hi-OXPHOS) (gal) versus the control cells (glu) was calculated for replica experiments and the log2 of the ratio is plotted.
After 48 hours the cells were collected, counted, and plated at 1000 cells/well in 384 well plates in duplicates for each cell line. Compounds from the Selleck Chemicals anti-cancer compound library (349 drugs in 4 concentrations; […]) were pinned the next day and viability was measured after 72 hours by the reduction of Resazurin (Ex=530 run, Em=590nin). (See FIG. 37A for schematic of screen.)

[1] = test system: T47D cells with doxycycline inducible PSMD2 KD (Lo19S) versus control cells; assay: Lo19S T47D drug screen (PSMD2 KD versus control cells, CellTiter-Glo); settings: T47D, Lo19S state by dox-inducible PSMD2 shRNA; compound library screen; 72 h; CellTiter-Glo
[2] = test system: IMR32 (reduced PSMD5) and Kelly neuroblastoma cells; assay: Viability of IMR32 versus Kelly neuroblastoma cells (CellTiter-Glo); settings: for sensitivity of IMR32 cells relative to Kelly cells (fold viability): 72 hours after addition, CellTiter-Glo
Method: To determine whether these compounds also differentially affect cells with reduced expression of PSDMS, IMR32 and Kelly cells were each cultured in the presence of ABT-263, disulfiram, or elesclomol across a range of concentrations. Cell viability was measured by CellTiter-Glo® Luminescent Cell Viability Assay 72 hours after addition of the compound to cells. The fold viability relative to culture in the absence of the compound was determined for each cell line. […] In the experiment shown in FIG. 24, the lowest lower concentration of ABT-263 and disulfiram tested was 1 uM.
ABT-263 targets several members of the BCL2 family, including BCL2 and BCL-XL.

SMILES | sensitivity of proteasome inhibitor resistant cancer cells vs sensitive counterpart cells (T47D cells) | growth inhibition of T47D cells with reduced level of PSMD2 vs control T47D cells (T47D cells) | viability of PSMD2 KD versus control cells (log2 (shPSMD2/Control)) [1] | sensitivity of IMR32 cells relative to Kelly cells (fold viability) [2] | preferential sensitivity of IMR32 versus Kelly cells, compared among BCL2 family inhibitors ([2]; ABT-263 versus more specific BCL2, BCL-XL and MCL-1 inhibitors) | effect of reintroduction (forced expression) of the PSMD5 subunit in IMR32 cells on sensitivity ([2]; IMR32 cells, PSMD5 epigenetically suppressed)
CC1(C)CCC(c2ccc(Cl)cc2)=C(CN2CCN(c3ccc(C(=O)NS(=O)(=O)c4ccc(N[C@H](CCN5CCOCC5)CSc5ccccc5)c(S(=O)(=O)C(F)(F)F)c4)cc3)CC2)C1 [ABT-263, navitoclax] | highly sensitive | selectively inhibits growth | selectively reduce the viability of PSMD2 KD cells versus control cells; also recorded: selectively sensitized cells | dramatically more sensitive; also recorded: significantly more sensitive | much greater for ABT-263 | did not significantly alter
CC(C)C[C@H](NC(=O)[C@H](Cc1ccccc1)NC(=O)c1cnccn1)B(O)O [bortezomib] |  |  | selectively reduce viability of control cells versus PSMD2 KD cells | increased resistance |  | 
CN(NC(=O)CC(=O)NN(C)C(=S)c1ccccc1)C(=S)c1ccccc1 [elesclomol] | highly sensitive | selectively inhibit growth | selectively reduce the viability of PSMD2 KD cells versus control cells; also recorded: selectively sensitized cells; also recorded: highly effective in slowing the growth of cells in the Lo19S state | dramatically more sensitive |  | 

Source: patent publication US20180353445A1, “METHODS AND COMPOSITIONS RELATING TO PROTEASOME INHIBITOR RESISTANCE” (Whitehead Institute for Biomedical Research, priority 2017, published 2018)
